According to PMC9117551 (iScience, 2022):
Like-named read-outs stand apart in the source and are kept apart here.

Tests used:
Assay in all cases: SPR
Type in all cases: binding
[1] = molecular target: T1, serine hydroxymethyltransferase 2 (SHMT2) (Homo sapiens, UniProt P34897)
T1 sequence (P34897 22-504 limits assumed): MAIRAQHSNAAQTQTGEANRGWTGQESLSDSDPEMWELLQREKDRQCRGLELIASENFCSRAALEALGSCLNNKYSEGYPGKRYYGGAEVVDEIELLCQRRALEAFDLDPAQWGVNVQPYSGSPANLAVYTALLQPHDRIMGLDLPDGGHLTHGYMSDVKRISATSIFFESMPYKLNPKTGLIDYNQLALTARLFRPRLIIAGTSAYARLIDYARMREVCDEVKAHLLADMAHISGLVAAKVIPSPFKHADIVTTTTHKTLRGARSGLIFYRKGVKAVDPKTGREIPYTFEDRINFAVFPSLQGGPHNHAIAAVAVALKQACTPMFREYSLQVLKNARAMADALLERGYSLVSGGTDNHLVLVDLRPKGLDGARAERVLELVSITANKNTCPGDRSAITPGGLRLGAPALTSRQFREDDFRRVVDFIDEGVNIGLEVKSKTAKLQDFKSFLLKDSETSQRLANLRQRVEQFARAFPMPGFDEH

SHMT1 = molecular target: T2, SHMT1 (Homo sapiens, UniProt P34896)
T2 sequence (P34896 2-483): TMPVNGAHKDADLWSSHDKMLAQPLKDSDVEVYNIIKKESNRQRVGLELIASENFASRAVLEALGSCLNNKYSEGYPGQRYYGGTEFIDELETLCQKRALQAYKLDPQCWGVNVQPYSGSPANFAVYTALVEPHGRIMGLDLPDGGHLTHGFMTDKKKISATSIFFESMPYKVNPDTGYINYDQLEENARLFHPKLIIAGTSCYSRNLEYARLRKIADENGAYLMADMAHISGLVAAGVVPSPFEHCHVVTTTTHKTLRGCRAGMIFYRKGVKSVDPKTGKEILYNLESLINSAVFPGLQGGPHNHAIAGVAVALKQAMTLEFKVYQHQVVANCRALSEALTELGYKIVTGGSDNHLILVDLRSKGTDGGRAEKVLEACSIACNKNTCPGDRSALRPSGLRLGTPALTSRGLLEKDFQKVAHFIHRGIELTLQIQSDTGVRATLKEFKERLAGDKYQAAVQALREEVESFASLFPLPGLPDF

[2] = molecular target: T1, serine hydroxymethyltransferase 2 (SHMT2); remark: listed apart in the source

Kd [1] [µM]	Kd (SHMT1) [µM]	Kd [2] [µM]	SMILES
2.9	2.37	–	CC1(C)[C@@H](O)CC[C@]2(C)[C@H]3C(=O)C=C4[C@@H]5C[C@@](C)(C(=O)O)CC[C@]5(C)CC[C@@]4(C)[C@]3(C)CC[C@@H]12 [GA, Glycyrrhetinic acid]
–	–	15.1	CC1(C)[C@@H](OC(=O)CCC(=O)O)CC[C@]2(C)[C@H]3C(=O)C=C4[C@@H]5C[C@@](C)(C(=O)O)CC[C@]5(C)CC[C@@]4(C)[C@]3(C)CC[C@@H]12 [CBX, Carbenoxolone]
–	–	3.51	Nc1nc2c(c(=O)[nH]1)NC(CNc1ccc(C(=O)N[C@@H](CCC(=O)O)C(=O)O)cc1)CN2 (stereo partly shown) [THF, Tetrahydrofolic acid]
